Results published in patent US5492892A, “Endothelin antagonists” (priority 1994, dated 1996).
Bridge positions count the residues as written; N and C are the ends. Ends that are not written are not given here.

Key:
[1] = tested on: isolated, perfused guinea pig lung; assay: Vasoconstrictor (agonist) activity, isolated perfused lung preparation, pulmonary artery pressure
Experimental: Isolated, Perfused Guinea Pig Lung: Another procedure for determining the vasoconstrictor action of the endothelin-active peptides and the blocking action of endothelin antagonists utilizes isolated, perfused guinea pig lung as described in more detail in Example 4, infra.
(§1) The vasoconstrictor activity of Et-1 or Et-3 alone, or in the presence of antagonist, was determined using an isolated, perfused lung preparation (Horgan, M. J., et al. J. Appl. Phsysiol., 63, 93-104 (1987)). Briefly, Hartley guinea pigs (400-500 g) of either sex were anesthetized with 50 mg/kg pentobarbital sodium. Following a tracheotomy, the thorax was opened, the lung and heart excised and the pulmonary artery cannulated. A wide cannula was placed in the left atrium. Perfusion was then started, within 5 min. of opening the thorax. The perfusion flow was set at 28 ml/min. When there was no visible sign of blood in the pulmonary venous effluent, recirculation of the perfusate was started, and pulmonary artery pressure was monitored. Endothelin activity was measured in an accumulative dose-dependent manner for agonist activity by addition of the peptides to a recirculating 300 ml bath. To assess antagonist activity, dose response curves with endothelin were done in the constant presence of antagonist.

vascular beds = settings: a number of vascular beds; Anggard et al.; cited from earlier work
[2] = literature reports; cited from earlier work
Et-1 receptor = settings: competitive and dose dependent manner; Fabregat et al.; cited from earlier work
endothelin responses = settings: Fabregat et al.; cited from earlier work
[3] = tested on: Et-1 in Perfused Guinea Pig Lung; assay: Antagonist activity against Et-1 in perfused guinea pig lung; settings: for Pressure Increase Inhibition / Pressure Increase Ppa With Antagonist: antagonist 10^-7 M; for Pressure Increase Ppa With Antagonist: preperfused 5 min then coperfused
Experimental: as §1
The response with lungs preperfused, for 5 min. with [drawing 44] at a concentration of 10^-7 M before coperfusion with Et-1 was compared with the response determined on lungs perfused only with Et-1. (Results in both Tables 1 and 2 are based on the average of 4-7 determinations for each result).

[4] = tested on: Et-3 in perfused guinea pig lung; assay: Specificity: lung preparations perfused with Et-3, with and without antagonist
Experimental: as §1
(§2) Specificity of [drawing 47] is illustrated in Table 2 which presents pressure increase data in similar lung preparations perfused with Et-3 and with other vasoconstrictor substances (alpha-thrombin and norepinephrine). As for the results shown in Table 1, pressure increase was determined on lung preparations with and without a 5 minute preperfusion step with 10^-7 M [drawing 48]

[5] = tested on: alpha-thrombin in perfused guinea pig lung; assay: Specificity: lung preparations perfused with alpha-thrombin, with and without antagonist; settings: α-Thrombin (10^-8 M); 5 minute preperfusion with 10^-7 M antagonist
Experimental: as §1, §2

[6] = tested on: norepinephrine in perfused guinea pig lung; assay: Specificity: lung preparations perfused with norepinephrine, with and without antagonist; settings: Norepinephrine (10^-7 M); 5 minute preperfusion with 10^-7 M antagonist
Experimental: as §1, §2

[7] = molecular target: endothelin receptors of the isolated, perfused guinea pig lung
[8] = molecular target: endothelin receptors of the isolated, perfused guinea pig lung; remark: listed apart in the source
[9] = isolated, perfused guinea pig lung

Sequence of [Dpr^1 -Asp^15 ]Et-1 (peptide): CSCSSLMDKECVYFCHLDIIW

In the case of `CC[C@H](C)[C@H](NC(=O)[C@H](CC(=O)O)NC(=O)[C@H](CC(C)C)NC(=O)[C@H](Cc1c[nH]cn1)NC(=O)[C@@H]1CSSC[C@H](N)C(=O)N[C@@H](CO)C(=O)N[C@H]2CSSC[C@H](NC(=O)[C@H](CCC(=O)O)NC(=O)[C@H](CCCCN)NC(=O)[C@H](CC(=O)O)NC(=O)[C@H](CCSC)NC(=O)[C@H](CC(C)C)NC(=O)[C@H](CO)NC(=O)[C@H](CO)NC2=O)C(=O)N[C@@H](C(C)C)C(=O)N[C@@H](Cc2ccc(O)cc2)C(=O)N[C@@H](Cc2ccccc2)C(=O)N1)C(=O)N[C@H](C(=O)N[C@@H](Cc1c[nH]c2ccccc12)C(=O)O)[C@@H](C)CC` [Et-1], the “Pressure Increase Ppa Without Antagonist” value ([1]; Et-1 Conc. 2 × 10^-10 M) is reported as 2.3 cm H2 O, the “Pressure Increase Ppa Without Antagonist” value ([1]; Et-1 Conc. 10^-9 M) is reported as 6.1 cm H2 O and the “Pressure Increase Ppa Without Antagonist” value ([1]; Et-1 Conc. 10^-10 M) is reported as 1.2 cm H2 O. The “concentration at which Et-1 is active (dose-dependent increase in pulmonary artery pressure, Ppa)” value [1, 9] was 10^-10 M, the “concentration giving a maximal response (increase in Ppa)” value [1, 9] was 10^-8 M and the “apparent potency order of vasoconstriction” value (vascular beds) was “Et-2>Et-1>Et-3”.

In the case of `NC[C@H](O)c1ccc(O)c(O)c1` [Norepinephrine], the “Ppa Without antagonist” value ([1]; Norepinephrine (10^-7 M)) is reported as 1.3 cm H2 O.

In the case of “Et-2: endothelin isopeptide (CSCSSWLDKECVYFCHLDIIW; ends and bridges not checked; cysteine pairing not given here; UniProt P20800 49-69, looked up)”, the “apparent potency order of vasoconstriction” value (vascular beds) is given as “Et-2>Et-1>Et-3”.

In the case of “[Ala^3,11 ]Et-1: known Et-1 analog (Randall et al.) (CSASSLMDKEAVYFCHLDIIW; ends and bridges not checked; cysteine pairing not given here; UniProt P05305 53-73, looked up, variant C3A C11A)”, the endothelin activity [2] is listed as “shows endothelin activity”.

In the case of “[Ala^4 ]Et-1: known Et-1 analog (Nakajima et al.) (CSCASLMDKECVYFCHLDIIW; ends and bridges not checked; cysteine pairing not given here; UniProt P05305 53-73, looked up, variant S4A)”, the endothelin activity [2] is given as “show appreciable endothelin activity”.

For “[Ala^5 ]Et-1: known Et-1 analog (Nakajima et al.)”, the endothelin activity [2] is given as “show appreciable endothelin activity”.

In the case of “[Asn^8 ]Et-1: known Et-1 analog (Nakajima et al.) (CSCSSLMNKECVYFCHLDIIW; ends and bridges not checked; cysteine pairing not given here; UniProt P05305 53-73, looked up, variant D8N)”, the endothelin activity [2] is given as “show appreciable endothelin activity”.

For “[D-Arg^1, D-Phe^5, D-Trp^7,9, Leu^11 ] substance P”, the “inhibition of ^125 I-labelled Et-1 binding to an Et-1 receptor” value (Et-1 receptor) is given as “able to inhibit” and the “blocking of endothelin responses” value (endothelin responses) is given as “blocks certain endothelin responses”.

For [Dpr^1 -Asp^15 ]Et-1, the “agonist activity (increase in Ppa)” value ([1]; doses as high as 1×10^-6 M) was “essentially no agonist activity”, the “Pressure Increase Inhibition” value ([3]; Et-1 2 × 10^-10 M) was 75% and the “Pressure Increase Ppa With Antagonist” value ([3]; Et-1 2 × 10^-10 M) was 0.6 cm H2 O. For the same molecule, the “Pressure Increase Inhibition” value ([3]; Et-1 10^-9 M) was 65%, the “Pressure Increase Ppa With Antagonist” value ([3]; Et-1 10^-9 M) was 2.1 cm H2 O and the “Pressure Increase Inhibition” value ([3]; Et-1 10^-10 M) was 95%. The “Pressure Increase Ppa With Antagonist” value ([3]; Et-1 10^-10 M) was 0.06 cm H2 O, the “blocking activity at higher doses of the analog” value ([3]; doses higher than 10^-7 M) was “did not substantially increase this blocking activity” and the “Ppa With antagonist” value ([4]; Et-3 (10^-9 M), 5 minute preperfusion with 10^-7 M antagonist) was 5.8 cm H2 O. The “antagonist activity against vasoconstricting substances other than Et-1” value ([4]; lung preparations treated with Et-3, α-thrombin or norepinephrine) was “no antagonist activity”, the “Ppa With antagonist” value [5] was 8.5 cm H2 O and the “Ppa With antagonist” value [6] was 1.3 cm H2 O.

With [Dpr^1 -Asp^15 ]Et-1 (peptide) the Pressure Increase Inhibition (%) of the Et-1 response, lung preperfused and coperfused with 10^-7 M antagonist [7] was 95%.

For “[Gly^6 ]Et-1: known Et-1 analog (Nakajima et al.) (CSCSSGMDKECVYFCHLDIIW; ends and bridges not checked; cysteine pairing not given here; UniProt P05305 53-73, looked up, variant L6G)”, the endothelin activity [2] is listed as “show appreciable endothelin activity”.

For “[Leu^9 ]Et-1: known Et-1 analog (Nakajima et al.) (CSCSSLMDLECVYFCHLDIIW; ends and bridges not checked; cysteine pairing not given here; UniProt P05305 53-73, looked up, variant K9L)”, the endothelin activity [2] is listed as “show appreciable endothelin activity”.

In the case of “[Phe^13 ]Et-1: known Et-1 analog (Nakajima et al.) (CSCSSLMDKECVFFCHLDIIW; ends and bridges not checked; cysteine pairing not given here; UniProt P05305 53-73, looked up, variant Y13F)”, the endothelin activity [2] is given as “show appreciable endothelin activity”.

In the case of “[Phe^21 ]Et-1: known Et-1 analog (Nakajima et al.) (CSCSSLMDKECVYFCHLDIIF; ends and bridges not checked; cysteine pairing not given here; UniProt P05305 53-73, looked up, variant W21F)”, the endothelin activity [2] is given as “show appreciable endothelin activity”.

For “[Tyr^21 ]Et-1: known Et-1 analog (Nakajima et al.) (CSCSSLMDKECVYFCHLDIIY; ends and bridges not checked; cysteine pairing not given here; UniProt P05305 53-73, looked up, variant W21Y)”, the endothelin activity [2] is given as “show appreciable endothelin activity”.

CTCFTYKDKECVYYCHLDIIW (disulfide 1-15, 3-11) [Endothelin 3] gave a Ppa (cm H2O), isolated perfused guinea pig lung, Et-3 at 10^-9 M without antagonist [8] of 3.8 cm H2O.
